The target of assay [1] is T1, NUAK family SNF1-like kinase 1 (Homo sapiens) (UniProt O60285).
T1 sequence (whole entry): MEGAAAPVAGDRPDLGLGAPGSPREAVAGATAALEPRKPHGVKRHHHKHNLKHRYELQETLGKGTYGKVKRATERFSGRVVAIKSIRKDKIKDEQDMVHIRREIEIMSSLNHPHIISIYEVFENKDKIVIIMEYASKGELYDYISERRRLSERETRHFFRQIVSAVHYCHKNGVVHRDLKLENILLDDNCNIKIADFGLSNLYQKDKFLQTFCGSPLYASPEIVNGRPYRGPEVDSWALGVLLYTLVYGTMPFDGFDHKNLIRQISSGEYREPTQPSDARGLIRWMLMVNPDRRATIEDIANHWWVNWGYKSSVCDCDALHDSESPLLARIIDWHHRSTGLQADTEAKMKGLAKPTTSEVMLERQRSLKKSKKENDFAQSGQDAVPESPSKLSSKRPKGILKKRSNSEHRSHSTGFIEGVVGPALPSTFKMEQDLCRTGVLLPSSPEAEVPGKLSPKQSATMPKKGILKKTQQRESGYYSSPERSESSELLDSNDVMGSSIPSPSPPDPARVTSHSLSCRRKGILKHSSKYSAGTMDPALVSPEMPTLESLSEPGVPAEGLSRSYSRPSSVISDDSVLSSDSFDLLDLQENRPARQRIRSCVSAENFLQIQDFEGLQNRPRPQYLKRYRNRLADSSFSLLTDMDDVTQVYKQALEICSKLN
In words: Selectivity interaction (Adapta Assay) EUB0001632a NUAK1. The note with it: at 10 µM.

Assay [2] relates to Tyrosine-protein kinase ABL1 (Homo sapiens), P00519 [F317L]. In words: Selectivity interaction (KinomeScan (DiscoverX)) EUB0001079a ABL1. The note with it: at 1 µM.
Assay [3] deals with T2, Mitogen-activated protein kinase kinase kinase 7 (Homo sapiens) (UniProt O43318).
T2 sequence (whole entry): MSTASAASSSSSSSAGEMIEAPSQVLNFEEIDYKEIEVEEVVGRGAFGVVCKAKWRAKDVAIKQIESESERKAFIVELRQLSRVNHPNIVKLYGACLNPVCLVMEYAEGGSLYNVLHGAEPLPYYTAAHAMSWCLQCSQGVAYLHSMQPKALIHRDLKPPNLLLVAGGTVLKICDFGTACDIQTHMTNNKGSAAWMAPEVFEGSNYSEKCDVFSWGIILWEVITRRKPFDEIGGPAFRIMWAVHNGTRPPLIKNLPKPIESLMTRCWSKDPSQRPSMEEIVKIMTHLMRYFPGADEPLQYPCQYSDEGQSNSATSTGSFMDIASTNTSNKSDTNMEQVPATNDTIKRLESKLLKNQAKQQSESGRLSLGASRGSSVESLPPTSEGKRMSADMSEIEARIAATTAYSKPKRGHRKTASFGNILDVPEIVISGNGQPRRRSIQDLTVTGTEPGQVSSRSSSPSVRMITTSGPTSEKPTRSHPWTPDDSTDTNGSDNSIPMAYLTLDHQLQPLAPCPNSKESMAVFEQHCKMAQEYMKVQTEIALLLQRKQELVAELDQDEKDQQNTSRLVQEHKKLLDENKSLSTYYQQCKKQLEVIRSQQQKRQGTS
In words: Selectivity interaction (ActivX KiNativ screen (kinase selectivity in THP-1 cell lysates)) EUB0000639a MAP3K7. Particulars: lysate. It counts as subcellular.

Assay [4] concerns the target Activin receptor type-2B (Homo sapiens) (UniProt Q13705). In words: Selectivity interaction (KinomeScan (DiscoverX)) EUB0000045b ACVR2B.
In assay [5] the target is T3, Serine/threonine-protein kinase Nek1 (Homo sapiens) (UniProt Q96PY6).
T3 sequence (whole entry): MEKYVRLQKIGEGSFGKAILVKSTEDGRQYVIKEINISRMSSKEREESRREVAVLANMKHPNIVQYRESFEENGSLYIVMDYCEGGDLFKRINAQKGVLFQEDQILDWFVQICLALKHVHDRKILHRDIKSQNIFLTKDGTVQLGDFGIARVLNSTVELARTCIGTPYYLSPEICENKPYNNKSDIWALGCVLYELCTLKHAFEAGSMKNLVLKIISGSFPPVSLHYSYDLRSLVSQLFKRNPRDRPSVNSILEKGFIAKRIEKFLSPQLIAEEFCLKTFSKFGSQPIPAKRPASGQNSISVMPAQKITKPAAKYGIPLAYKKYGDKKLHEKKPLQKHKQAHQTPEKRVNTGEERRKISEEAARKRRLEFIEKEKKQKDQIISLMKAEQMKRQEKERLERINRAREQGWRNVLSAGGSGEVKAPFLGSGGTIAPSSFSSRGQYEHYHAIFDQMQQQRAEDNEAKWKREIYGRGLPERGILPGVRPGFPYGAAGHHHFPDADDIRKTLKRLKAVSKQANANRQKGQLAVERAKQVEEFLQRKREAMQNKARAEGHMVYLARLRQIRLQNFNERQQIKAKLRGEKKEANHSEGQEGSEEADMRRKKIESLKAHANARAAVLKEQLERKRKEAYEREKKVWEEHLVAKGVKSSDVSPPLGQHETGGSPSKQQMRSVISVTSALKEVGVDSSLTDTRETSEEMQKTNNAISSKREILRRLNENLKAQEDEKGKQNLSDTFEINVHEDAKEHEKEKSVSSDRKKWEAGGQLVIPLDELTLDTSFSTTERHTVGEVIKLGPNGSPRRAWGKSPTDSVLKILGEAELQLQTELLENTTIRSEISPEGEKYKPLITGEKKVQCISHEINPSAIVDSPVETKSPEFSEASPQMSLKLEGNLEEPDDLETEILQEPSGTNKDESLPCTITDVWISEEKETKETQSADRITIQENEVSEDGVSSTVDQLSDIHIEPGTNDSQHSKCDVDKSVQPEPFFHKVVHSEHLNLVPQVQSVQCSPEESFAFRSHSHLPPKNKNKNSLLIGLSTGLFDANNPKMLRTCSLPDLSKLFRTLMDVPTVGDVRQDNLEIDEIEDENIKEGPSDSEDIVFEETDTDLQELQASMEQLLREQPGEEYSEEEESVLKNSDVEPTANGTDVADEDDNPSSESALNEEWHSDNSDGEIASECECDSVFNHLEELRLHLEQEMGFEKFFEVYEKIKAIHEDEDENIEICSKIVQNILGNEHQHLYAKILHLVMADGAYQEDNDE
In words: Selectivity interaction (KinomeScan (DiscoverX)) EUB0000618a NEK1. Particulars: at 10 µM.

Activin receptor type-2B (Homo sapiens), sequence (Q13705 whole entry): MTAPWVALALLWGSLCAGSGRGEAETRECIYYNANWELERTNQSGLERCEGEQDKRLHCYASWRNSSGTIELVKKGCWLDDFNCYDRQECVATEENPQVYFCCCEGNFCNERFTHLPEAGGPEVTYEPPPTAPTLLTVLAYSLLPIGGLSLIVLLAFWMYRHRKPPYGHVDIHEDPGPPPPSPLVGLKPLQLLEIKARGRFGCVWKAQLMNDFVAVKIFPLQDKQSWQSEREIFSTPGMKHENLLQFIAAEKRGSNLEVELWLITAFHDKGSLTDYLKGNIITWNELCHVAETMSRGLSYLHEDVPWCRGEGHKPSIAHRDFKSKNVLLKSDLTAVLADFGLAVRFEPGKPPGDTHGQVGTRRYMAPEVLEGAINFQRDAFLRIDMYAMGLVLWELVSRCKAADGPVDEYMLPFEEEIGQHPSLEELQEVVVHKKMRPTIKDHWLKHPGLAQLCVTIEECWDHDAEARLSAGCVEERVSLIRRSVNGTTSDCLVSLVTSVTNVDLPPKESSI
Tyrosine-protein kinase ABL1 (Homo sapiens), P00519 [F317L], sequence (P00519 whole entry F317L): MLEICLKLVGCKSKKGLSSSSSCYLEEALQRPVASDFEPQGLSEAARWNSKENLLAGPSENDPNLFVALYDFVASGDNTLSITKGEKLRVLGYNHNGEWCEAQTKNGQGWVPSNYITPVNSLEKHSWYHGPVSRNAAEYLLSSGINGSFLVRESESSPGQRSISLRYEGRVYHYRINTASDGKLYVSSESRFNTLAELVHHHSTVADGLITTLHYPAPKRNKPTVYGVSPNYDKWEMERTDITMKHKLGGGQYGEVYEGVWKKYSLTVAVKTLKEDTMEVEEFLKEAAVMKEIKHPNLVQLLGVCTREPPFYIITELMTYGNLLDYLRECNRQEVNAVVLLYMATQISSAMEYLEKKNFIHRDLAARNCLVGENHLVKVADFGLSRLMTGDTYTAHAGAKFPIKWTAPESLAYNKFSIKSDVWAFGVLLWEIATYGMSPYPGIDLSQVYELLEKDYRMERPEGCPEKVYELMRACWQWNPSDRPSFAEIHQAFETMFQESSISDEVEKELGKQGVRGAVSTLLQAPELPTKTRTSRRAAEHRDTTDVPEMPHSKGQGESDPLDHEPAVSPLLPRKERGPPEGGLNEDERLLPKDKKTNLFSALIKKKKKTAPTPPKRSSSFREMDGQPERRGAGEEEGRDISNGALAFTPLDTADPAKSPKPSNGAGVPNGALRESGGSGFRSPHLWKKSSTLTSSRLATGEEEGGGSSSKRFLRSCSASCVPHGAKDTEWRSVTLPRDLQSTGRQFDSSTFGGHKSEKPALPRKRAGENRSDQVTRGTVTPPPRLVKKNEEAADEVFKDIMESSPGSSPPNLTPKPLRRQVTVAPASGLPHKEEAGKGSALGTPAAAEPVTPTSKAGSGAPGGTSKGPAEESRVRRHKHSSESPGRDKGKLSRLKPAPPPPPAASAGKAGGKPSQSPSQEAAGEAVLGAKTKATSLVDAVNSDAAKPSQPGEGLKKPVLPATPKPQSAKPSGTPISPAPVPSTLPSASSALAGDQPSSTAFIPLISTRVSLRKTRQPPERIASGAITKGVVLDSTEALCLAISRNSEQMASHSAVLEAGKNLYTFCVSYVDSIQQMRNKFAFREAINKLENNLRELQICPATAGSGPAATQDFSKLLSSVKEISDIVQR

On to `Cn1cc(-n2cnc3c(NCc4nc5cc(Cl)c(Cl)cc5[nH]4)nc(N4CCOCC4)nc32)cn1`, for which the % of inhibition in assay [1] was found to be 15.2%.
In assay [2], `Nc1cnc(N2CCc3cc(S(=O)(=O)Nc4c(F)cc(Cl)cc4F)cc(N4CCCC4=O)c32)nc1` [TP-020n] registered a % of control of 78%.
`CC[C@@H]1[C@H](F)C(=O)N[C@@H]1COc1nccc2cc(C(N)=O)c(OC)cc12` [ZIMLOVISERTIB]: the % of inhibition in assay [3] (at 0.01 µM) was 6.8%; in assay [3] (at 0.04 µM) it was 3.8%; in assay [3] (at 0.2 µM), -2.9%; in assay [3] (at 1 µM), -3.1%; in assay [3] (at 5 µM), -8.6%.
Take `C=CC(=O)Nc1cc(-n2c(=O)ccc3cnc4ccc(-c5ccc(NS(C)(=O)=O)cc5)cc4c32)ccc1C`: the % of control was found to be 100% in assay [4] (at 1 µM) and 84% in assay [4] (at 10 µM).
For the molecule `O[C@H]1CC[C@H](Nc2ncc3nc(Nc4c(F)cc(F)cc4F)n([C@H]4CCOC4)c3n2)CC1`, the % of control in assay [5] is 97%.

The record behind these values is ChEMBL document CHEMBL5465560, “Selectivity Literature for EUbOPEN Chemogenomic Library” (2024).
